Measurements taken from PMC4322365, “A Ligand-observed Mass Spectrometry Approach Integrated into the Fragment Based Lead Discovery Pipeline” (Scientific Reports, 2015).

Experiments:
NS5B = target: T1, NS5B (Hepatitis C virus genotype 1b, UniProt P26663); assay: X-ray crystallography of fragments soaked into NS5B crystals; type: binding; conditions: fragments soaked at 5 mM
T1 construct: NS5B with a C-terminal 10-His tag was expressed in E. coli; 10-His (C); made in house; host or cells: E. coli
Description: Similar to other nucleotide polymerases, the domain distribution of apo HCV NS5B polymerase bears an anatomical resemblance to a right hand with subdomains representing the fingers, thumb and palm[50][51]. Structural and mechanistic studies of NS5B have indicated the existence of multiple allosteric binding domains including palm I, II and III pockets and thumb I and II sites targeted by reported inhibitors. To characterize the binding modes of the fragments studied, they were soaked in NS5B crystals to obtain the protein complex X-ray structures. We were able to resolve electron density corresponding to the soaked compound for five out of ten fragments (crystallographic data summary in Table S4).
Moreover, the interaction could be enhanced by a π-π conjugate between its benzene ring and Tyr448 (Figure 3A). Fragment 204 engages deep in the palm I pocket through its trifluoromethyl moiety forming a hydrogen bond with Ser368 and van der Waals interaction with Cys366. Additionally, the hydrophobic interaction with Met414 as well as the π-π conjugate to Tyr448 may also contribute to the relatively high binding affinity of this fragment (Figure 3B). Fragment 117 binds at the pocket mainly through van der Waals interactions with Met414, Cys366 and Ser368 (Figure 3C), whereas fragment 328 forms van der Waals interactions with Tyr415 and Cys366 (Figure 3D). We assume these weak interactions may result in the lower binding strengths observed for the two fragments. Fragment 162 binds NS5B in a small cavity of the thumb pocket, with its trifluoromethyl moiety extending a key hydrogen bond with Asn369 as well as making hydrophobic interactions with Ser371 and Glu481. To our knowledge, the three residues constitute a new active domain in the thumb region never disclosed before.
The final optimized NS5B crystals were grown by the hanging drop method using a well solution of 30 mg/mL protein, 20% (w/v) PEG-4000, 10% (v/v) glycerol, 5 mM DTT and 50 mM MES (pH 5.5) and diffracted to 2 Å. Fragments were soaked onto the NS5B crystals at a final concentration of 5 mM (2.38% DMSO) for 2–3 days. Diffraction data were collected at Rigaku MicorMax 007HF X-ray diffraction instrument with an R-AXIS HTC detector (Rigaku), and processed using CCP4[60]. The NS5B structure was solved by molecular replacement using NS5B (1QUV) as the search model. The fragment-bound NS5B complex structures were determined by rigid-body refinement using the apo NS5B structure as a starting model. Structure improvement proceeded with multiple rounds of manual model building in Coot, followed by refinement using CCP4. Fragment ligands were fitted into clear Fo-Fc electron density at the late stage of refinement. Images were rendered from PyMOL.

NS5B wild-type = target: T2, NS5B wild-type (Hepatitis C virus genotype 1b, UniProt P26663); assay: In-solution binding specificity, ligand-observed MS, wild-type NS5B; conditions: WT + 204; defined as 100%
T2 construct: NS5B with a C-terminal 10-His tag was expressed in E. coli; 10-His (C); made in house; host or cells: E. coli
Description: To evaluate the binding specificity of fragment 204 to the palm domain of NS5B through interacting with certain residues indicated in the crystallographic data, we prepared two presumable binding-site mutants in the palm domain (C366A and M414T), and a control mutant in the thumb domain (M423T). […] Therefore, this experiment strongly implicated the finding by X-ray crystallography that fragment 204 binds to the palm domain of NS5B through interaction with Cys366 and Met414 was also valid in solution.
NS5B with a C-terminal 10-His tag was expressed in E. coli. Site-directed mutagenesis was performed using the Quick Site-directed mutagenesis kit according to the manufacturer's instructions (Stratagene, China). All constructs were verified by DNA sequencing. […]
In the primary screening, a mixture of 384 fragments (each at a final concentration of 25 μM) and NS5B at 50 μM was prepared in the binding buffer of 20 mM MES (pH 6.5), 300 mM NaCl and 10% glycerol, and incubated for 40 min at 25°C. […] The supernatant containing the ligands was evaporated by a speed vacuum, reconstituted in 80% methanol, and analyzed by LC/MS. […] Samples were all prepared in duplicate and analyzed separately.

Compound	Binding site in crystal structure (NS5B)	MS int. (%) (NS5B wild-type)
N#CCc1ccc(O)cc1 [Fragment 114]	palm I allosteric domain	
Cc1ccc2oc(=O)ccc2c1 [Fragment 117]	palm I allosteric domain	
Nc1ccc(C(F)(F)F)cn1 [Fragment 162]	thumb region	
O=C(O)c1ccc(C(F)(F)F)cc1 [Fragment 204]	palm I allosteric domain	100.0
N#CC(c1ccccc1)N1CCOCC1 (stereo not drawn) [Fragment 328]	palm I allosteric domain	
